Measurements from patent US20240109891A1, “NOVEL SUBSTITUTED TRICYCLIC AZA-HETEROCYCLES AS SOS1 INHIBITORS” (Viva Star Biosciences (Suzhou) Co., Ltd., priority 2021, published 2024).

What was measured:
[1] = biological target: T1, KRAS G12D and SOS1 proteins (Homo sapiens, UniProt Q07889); assay: KRAS-G12D/SOS1 binding assay (HTRF); details: Tag1-SOS1 / Tag2-KRAS G12D, 10 μM GTP
T1 construct: purchased Cisbio 63ADK000CB17PEG
T1 sequence (Q07889 1-1333): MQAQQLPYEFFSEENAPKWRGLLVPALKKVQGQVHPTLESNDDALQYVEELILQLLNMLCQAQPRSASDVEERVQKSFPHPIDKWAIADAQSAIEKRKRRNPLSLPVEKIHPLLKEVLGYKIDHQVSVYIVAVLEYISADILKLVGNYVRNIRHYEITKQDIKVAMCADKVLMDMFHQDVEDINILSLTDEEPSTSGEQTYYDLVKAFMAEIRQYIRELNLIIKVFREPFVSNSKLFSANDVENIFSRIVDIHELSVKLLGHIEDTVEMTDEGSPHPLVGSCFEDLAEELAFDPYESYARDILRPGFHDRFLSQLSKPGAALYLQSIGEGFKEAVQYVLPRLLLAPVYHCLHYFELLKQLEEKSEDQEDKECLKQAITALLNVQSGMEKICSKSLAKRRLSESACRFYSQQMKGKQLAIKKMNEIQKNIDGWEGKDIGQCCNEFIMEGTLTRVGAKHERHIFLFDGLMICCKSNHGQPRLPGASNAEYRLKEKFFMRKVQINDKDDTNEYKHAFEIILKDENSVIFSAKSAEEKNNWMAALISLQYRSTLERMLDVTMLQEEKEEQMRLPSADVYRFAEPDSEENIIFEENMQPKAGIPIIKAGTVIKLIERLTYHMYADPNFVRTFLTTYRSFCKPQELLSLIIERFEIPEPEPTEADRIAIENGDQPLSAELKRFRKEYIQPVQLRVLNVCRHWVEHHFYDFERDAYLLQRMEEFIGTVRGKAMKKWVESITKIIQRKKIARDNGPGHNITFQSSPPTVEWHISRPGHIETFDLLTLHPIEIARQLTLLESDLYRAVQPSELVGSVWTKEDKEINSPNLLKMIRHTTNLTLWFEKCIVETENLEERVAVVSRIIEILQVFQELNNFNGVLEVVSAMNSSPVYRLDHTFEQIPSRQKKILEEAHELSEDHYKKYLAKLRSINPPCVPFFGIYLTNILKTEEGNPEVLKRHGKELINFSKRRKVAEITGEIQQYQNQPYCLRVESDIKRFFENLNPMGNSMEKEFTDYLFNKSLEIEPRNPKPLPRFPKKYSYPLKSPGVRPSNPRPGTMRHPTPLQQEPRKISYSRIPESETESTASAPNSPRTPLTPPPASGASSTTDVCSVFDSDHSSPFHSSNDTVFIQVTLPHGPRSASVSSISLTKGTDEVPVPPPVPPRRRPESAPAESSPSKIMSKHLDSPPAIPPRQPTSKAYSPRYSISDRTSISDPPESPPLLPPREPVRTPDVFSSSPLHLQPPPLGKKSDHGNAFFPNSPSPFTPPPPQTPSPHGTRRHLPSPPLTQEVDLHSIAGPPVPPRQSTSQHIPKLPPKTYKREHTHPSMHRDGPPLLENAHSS

[2] = biological target: T2, KRAS G12C and SOS1 proteins (Homo sapiens, UniProt Q07889); assay: KRAS-G12C/SOS1 binding assay (HTRF); details: Tag1-SOS1 / Tag2-KRAS G12C, 10 μM GTP
T2 construct: purchased Cisbio 63ADK000CB16PEG
T2 sequence (Q07889 1-1333): T1 sequence (Q07889 1-1333)
Method: KRAS-WT (or G12C/G12D/G12V)/SOS1 Binding Assay
Low IC50 values are indicative of high potency of the SOS1 inhibitor compounds in this assay setting.
The KRAS-WT (or G12C/G12D/G12V)/SOS1 binding assay is performed using an assay kit (Cisbio, Cat #63ADK000CB15PEG or 63ADK000CB16PEG/63ADK000CB17PEG/63ADK000CB18PEG) according to the procedure recommended by the manufacturer. • 1) Thaw and prepare the working solution of Tag1-SOS1 protein and Tag2-KRAS-WT (or G12C/G12D/G12V) protein with final concentration of 10 μM GTP (Sigma, Cat #V900868). • 2) Thaw and prepare the working solution of anti-Tag1-Tb^3+ anti-Tag2-XL665. • 3) Dispense 2 μL of serially diluted compound, 4 μL of Tag1-SOS1 protein and 4 μL of Tag2-KRAS-WT (or G12C/G12D/G12V) protein with GTP into a ProxiPlate-384 Plus, white 384-shallow well microplate (PerkinElmer, Cat #6008280). • 4) Incubate the plate for 15 minutes at room temperature. • 5) Dispense 10 μL of pre-mixed anti-Tag1-Tb^3+ and anti-Tag2-XL665 into the plate. • 6) Seal the plate and incubate for 2 hours at room temperature. • 7) Remove the plate sealer and read on PHERAstar FS (BMG LABTECH, PHERAstar FS). • 8) Calculate the ratio of the acceptor and donor emission signals for each individual well using the following equation.
[formula] • 9) IC50 values are fitted and calculated by HTRF signal values and log of compound concentrations to nonlinear regression [Log (inhibitor) vs. Response−Variable Slope (four parameters)] using the GraphPad Prism 8.0.

[3] = biological target: T3, KRAS-WT and SOS1 proteins (Homo sapiens, UniProt Q07889); assay: KRAS-WT/SOS1 binding assay (HTRF); details: Tag1-SOS1 / Tag2-KRAS-WT, 10 μM GTP, read-out: Activity Data in Kras: SOS1 Assay, Wild Type
T3 construct: purchased Cisbio 63ADK000CB15PEG
T3 sequence (Q07889 1-1333): T1 sequence (Q07889 1-1333)

Row | Compound | IC50 [1] | IC50 [2] | IC50 [3]
1 | Cc1nc(N[C@H](C)c2cccc3c2CCC3(F)F)c2cc(C3CCOCC3)c3nncn3c2n1 [Example 1, N-[(1R)-1-(1,1-difluoro-2,3-dihydro-1H-inden-4-yl)ethyl]-12-methyl-7-(oxan-4-yl)-2,4,5,11,13-pentaazatricyclo[7.4.0.0^{2,6}]trideca-1(9),3,5,7,10,12-hexaen-10-amine] | < 0.1 µM | < 0.1 µM | 
2 | Cc1nc(N[C@H](C)c2cccc(C(F)(F)CO)c2)c2cc(C3CCOCC3)c3nncn3c2n1 [Example 2, (R)-2,2-difluoro-2-(3-(1-((2-methyl-6-(tetrahydro-2H-pyran-4-yl)-[1,2,4]triazolo[4′,3′:1,6]pyrido[2,3-d]pyrimidin-4-yl)amino)ethyl)phenyl)ethanol] | < 0.1 µM | < 0.1 µM | 
3 | COc1cc2c(cc1-c1ccc(=O)n(C)c1)c(N[C@H](C)c1cccc(C(F)(F)CO)c1)nc1ccnn12 [Example 45, (R)-5-(5-((1-(3-(1,1-difluoro-2-hydroxyethyl)phenyl)ethyl)amino)-8-methoxypyrazolo[1,5-a]quinazolin-7-yl)-1-methylpyridin-2(1H)-one] | < 0.1 µM | 0.1 to 0.5 µM | < 0.1 µM
4 | COc1cc2c(cc1-c1ccc(=O)n(C)c1)c(N[C@H](C)c1cccc3c1CCC3(F)F)nc1ccnn12 [Example 46, (R)-5-(5-((1-(1,1-difluoro-2,3-dihydro-1H-inden-4-yl)ethyl)amino)-8-methoxypyrazolo[1,5-a]quinazolin-7-y1)-1-methylpyridin-2(1H)-one] | 0.1 to 0.5 µM | 0.1 to 0.5 µM | < 0.1 µM
5 | COc1cc2c(cc1C1CCOCC1)c(N[C@H](C)c1cccc(C(F)F)c1F)nc1ccnn12 [Example 47, (R)-N-(1-(3-(difluoromethyl)-2-fluorophenyl)ethyl)-8-methoxy-7-(tetrahydro-2H-pyran-4-yl)pyrazolo[1,5-a]quinazolin-5-amine] | 0.5 to 5 µM | 0.5 to 5 µM | 0.1 to 0.5 µM
6 | COc1cc2c(cc1C1=CCOCC1)c(N[C@H](C)c1cccc3c1CCC3(F)F)nc1ccnn12 [Example 49, (R)-N-(1-(1,1-difluoro-2,3-dihydro-1H-inden-4-y1)ethyl)-7-(3,6-dihydro-2H-pyran-4-yl)-8-methoxypyrazolo[1,5-a]quinazolin-5-amine] |  | 0.1 to 0.5 µM | 
7 | COc1cc2c(cc1C1CCOCC1)c(N[C@H](C)c1cccc3c1CCC3(F)F)nc1ccnn12 [Example 50, (R)-N-(1-(1,1-difluoro-2,3-dihydro-1H-inden-4-yl)ethyl)-8-methoxy-7-(tetrahydro-2H-pyran-4-yl)pyrazolo[1,5-a]quinazolin-5-amine] |  | 0.1 to 0.5 µM | 
8 | COc1cc2c(cc1C1CCOCC1)c(N[C@H](C)c1cccc(C(F)(F)CO)c1)nc1ccnn12 [Example 51, (R)-2,2-difluoro-2-(3-(1-((8-methoxy-7-(tetrahydro-2H-pyran-4-yl)pyrazolo[1,5-a]quinazolin-5-yl)amino)ethyl)phenyl)ethanol] | 0.1 to 0.5 µM | 0.1 to 0.5 µM | 0.1 to 0.5 µM
9 | C[C@@H](Nc1nc2ccnn2c2cc(=O)n(C3CCOCC3)cc12)c1cccc(C(F)F)c1F [Example 59, (R)-5-((1-(3-(difluoromethyl)-2-fluorophenyl)ethyl)amino)-7-(tetrahydro-2H-pyran-4-yl)pyrazolo[1,5-a]pyrido[3,4-e]pyrimidin-8(7H)-one] |  | < 0.1 µM | 
10 | C[C@@H](Nc1nc2ccnn2c2cc(=O)n(C3CCOCC3)cc12)c1cccc(C(F)(F)CO)c1 [Example 60, (R)-5-((1-(3-(1,1-difluoro-2-hydroxyethyl)phenyl)ethyl)amino)-7-(tetrahydro-2H-pyran-4-yl)pyrazolo[1,5-a]pyrido[3,4-e]pyrimidin-8(7H)-one] | < 0.1 µM | < 0.1 µM | < 0.1 µM
